Measurements reported in the NIST ThermoML archive (doi:10.1016/j.jct.2019.03.035).
Numbers after ± are expanded uncertainties.

Test: refractive index (other wavelength) (dimensionless); xn = mol fraction of the nth substance listed
Conditions: 288.62 K, 100 kPa, Liquid, Wavelength=632.8 nm, minimum deviation angle technique

N#Cc1ccccc1 [benzonitrile] + CCCCCCCCCC
Conditions	refractive index
x1 = 0.112	1.4196 ± 0.0003
x1 = 0.188	1.4249 ± 0.0003
x1 = 0.34	1.4371 ± 0.0003
x1 = 0.396	1.4422 ± 0.0003
x1 = 0.49	1.4514 ± 0.0004
x1 = 0.608	1.4647 ± 0.0004
x1 = 0.702	1.4771 ± 0.0004
x1 = 0.821	1.4952 ± 0.0004
x1 = 0.912	1.5105 ± 0.0005
x1 = 1	1.5277 ± 0.0003
